Results on 20 molecules are retold here after PubChem BioAssay (NCI).

Some test systems named below: PC-3 prostate; T-47D breast; U251 CNS; NCI-H23 lung; A549 NSCLC; UO-31 renal; MCF7 breast; IGROV1 ovarian; HOP-62 NSCLC; A498 renal; SK-MEL-2 melanoma.
Assay in all cases: DTP human tumour cell line panel, 48 h

As a reminder, the TGI is the concentration giving total growth inhibition. A higher TGI goes with less potent growth arrest. Broadly, the GI50 is the concentration that inhibits growth by half.

The structures appear in SMILES notation. Where “and” joins values, the source holds several entries; their conditions need not be identical. Identical values can stand only once.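 In this assay, cells in 96-well plates receive the compound at five concentrations for 48 hours. Endpoints are linearly interpolated between the surrounding concentrations. The concentration for 50% growth inhibition is given as GI50. TGI: total growth inhibition.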 Bounds are passed on as bounds.

In the case of `CC1=C(C#N)C(=C(C#N)C#N)OC1(C)Cc1ccccc1` (centres undefined), the total growth inhibition concentration (TGI) in the assay with PC-3 prostate is over 100 µM; in the assay with T-47D breast, 85.6 µM; in the assay on U251 CNS, over 100 µM; with NCI-H23 lung, over 100 µM; in the assay on A549 NSCLC it was over 100 µM; in the assay with UO-31 renal, 37 µM. Also, the TGI in the assay with MCF7 breast, in the assay with IGROV1 ovarian, in the assay with HOP-62 NSCLC, with A498 renal and in the assay on SK-MEL-2 melanoma was over 100 µM throughout.

On to `CC(=O)NC1C(OC(C)C(=O)NC(C)C(=O)NC(CCC(=O)NCCCCCNc2ccc([N+](=O)[O-])c3[nH]c4ccccc4c(=O)c23)C(N)=O)C(O)C(CO)OC1(C)OCc1ccccc1` (centres undefined), for which the TGI in the assay on PC-3 prostate, in the assay with T-47D breast, in the assay on U251 CNS, in the assay with NCI-H23 lung, in the assay with A549 NSCLC and in the assay with UO-31 renal was over 100 µM each time. The TGI with MCF7 breast, in the assay with IGROV1 ovarian, in the assay with HOP-62 NSCLC, with A498 renal and with SK-MEL-2 melanoma was over 100 µM each time.

As to `CC1=NN(c2nc(N)nc(CN3CCOCC3)n2)C(C)(C)C1`, the TGI with PC-3 prostate is over 100 µM; with T-47D breast, over 100 µM; in the assay with U251 CNS, over 100 µM; with NCI-H23 lung, over 100 µM; in the assay on A549 NSCLC it was over 100 µM; in the assay with UO-31 renal it was 33.3 µM. Moreover, the TGI was over 100 µM in the assay with MCF7 breast; 37.2 µM with IGROV1 ovarian; over 100 µM in the assay on HOP-62 NSCLC; over 100 µM in the assay with A498 renal; over 100 µM in the assay with SK-MEL-2 melanoma.

On to `CC(/C=C/C(=O)NO)=C\C(C)C(=O)c1ccc(N(C)C)cc1` (centres undefined), for which the TGI was 10.7 µM in the assay on PC-3 prostate; over 100 µM with T-47D breast; 0.0354 µM with U251 CNS; 4 µM in the assay on NCI-H23 lung; 0.0814 µM in the assay on A549 NSCLC; 0.262 µM with UO-31 renal. The TGI was over 100 µM in the assay on MCF7 breast; 0.28 µM in the assay with IGROV1 ovarian; 14.6 µM in the assay on HOP-62 NSCLC; 0.257 µM in the assay with A498 renal; 0.778 µM in the assay on SK-MEL-2 melanoma.

With `C=CC(=O)Nc1ccc(NC(=O)C=C)c2c1C(=O)c1ccccc1C2=O`, the concentration for total growth inhibition (TGI) in the assay with PC-3 prostate, in the assay on T-47D breast, with U251 CNS, in the assay on NCI-H23 lung, with A549 NSCLC and with UO-31 renal was over 100 µM throughout. Also, the TGI was 57.4 µM with MCF7 breast; over 100 µM with IGROV1 ovarian; over 100 µM in the assay with HOP-62 NSCLC; over 100 µM with A498 renal; over 100 µM with SK-MEL-2 melanoma.

Turning to `CC1OC(OC2C(OC(=O)[C@]34CCC(C)(C)C[C@H]3C3=CC[C@@H]5[C@@]6(C)CC[C@H](OC7OC(C(=O)O)C(O)C(O)C7O)C(C)(C)[C@@H]6CC[C@@]5(C)[C@]3(C)C[C@H]4O)OCC(O)C2O)C(O)C(O)C1OC1OCC(O)C(O)C1O` (some centres undefined), the GI50 in the assay with PC-3 prostate was 11.3 µM and 5.07 µM; with A549 NSCLC it was 11.8 µM and 5.48 µM; in the assay on MCF7 breast, 14.4 µM and 5.24 µM; with SK-MEL-2 melanoma it was 15.4 µM and 3.47 µM. Besides, the TGI in the assay on PC-3 prostate was 23.7 µM and 18.6 µM; in the assay on T-47D breast, 96.2 µM and 30.6 µM; in the assay on U251 CNS, 29.1 µM and 24.3 µM; in the assay on NCI-H23 lung it was 18.2 µM and 20.7 µM; with A549 NSCLC, 25.3 µM and 20.4 µM; with UO-31 renal, 24.1 µM and 20.1 µM. Moreover, the TGI in the assay on MCF7 breast is 29.4 µM and 17.8 µM; with IGROV1 ovarian, 31.5 µM and 27.8 µM; with HOP-62 NSCLC it was 32.7 µM and 28.3 µM; in the assay with A498 renal, 6.22 µM and 3.63 µM; in the assay with SK-MEL-2 melanoma it was 30.4 µM and 12.4 µM.

Regarding `CCn1cc2c(=O)n3ncn(-c4ccc(Br)cc4)c3nc2n1`, the TGI in the assay on PC-3 prostate, in the assay on T-47D breast, with U251 CNS, in the assay on NCI-H23 lung, with A549 NSCLC and in the assay with UO-31 renal was over 100 µM throughout. Also, the TGI with MCF7 breast, in the assay on IGROV1 ovarian, in the assay with HOP-62 NSCLC, with A498 renal and in the assay on SK-MEL-2 melanoma was over 100 µM throughout.

Regarding `CSC12c3cc(C)n(-c4ccc([N+](=O)[O-])cc4)c3CC(C)(C)CN1C(=O)C2Oc1ccccc1` (centres undefined), the TGI with PC-3 prostate, in the assay on T-47D breast, in the assay with U251 CNS, in the assay on NCI-H23 lung, in the assay on A549 NSCLC and in the assay on UO-31 renal was over 100 µM each time. In addition, the TGI in the assay on MCF7 breast, with IGROV1 ovarian, with HOP-62 NSCLC, in the assay on A498 renal and in the assay with SK-MEL-2 melanoma was over 100 µM in each case.

`CCOC(=O)C(C(=O)OCC)=C1SC(=Nc2ccccc2)C(=Nc2ccccc2)N1c1ccccc1`: the TGI in the assay on PC-3 prostate, in the assay on T-47D breast, in the assay on U251 CNS, with NCI-H23 lung, with A549 NSCLC and with UO-31 renal was over 100 µM in each case. Further, the TGI with MCF7 breast, in the assay on IGROV1 ovarian, with HOP-62 NSCLC, in the assay on A498 renal and with SK-MEL-2 melanoma was over 100 µM in each case.

As for `O=C1/C(=C\c2ccc(Cl)cc2)N=C(c2ccccc2)N1n1c(=O)cn[nH]c1=S`, the TGI is over 100 µM in the assay on PC-3 prostate; 28.6 µM with T-47D breast; 37.7 µM in the assay with U251 CNS; 43.6 µM in the assay on NCI-H23 lung; over 100 µM in the assay with A549 NSCLC; over 100 µM with UO-31 renal. Further, the TGI in the assay with MCF7 breast was 35.4 µM; in the assay on IGROV1 ovarian it was 66.1 µM; in the assay on HOP-62 NSCLC, over 100 µM; in the assay on A498 renal, over 100 µM; with SK-MEL-2 melanoma, over 100 µM.

`O=c1ccc2ccc(OP(=O)(O)O)cc2o1`: the TGI with PC-3 prostate, in the assay on T-47D breast, in the assay with U251 CNS, in the assay with NCI-H23 lung, with A549 NSCLC and in the assay with UO-31 renal was over 100 µM in each case. Further, the TGI with MCF7 breast, with IGROV1 ovarian, in the assay with HOP-62 NSCLC, in the assay with A498 renal and in the assay on SK-MEL-2 melanoma was over 100 µM throughout.

In the case of `COc1cc2c(cc1OC)OC(c1c(OC)ccc(OC)c1O)CC2` (centres undefined), the TGI in the assay on PC-3 prostate, in the assay with T-47D breast, in the assay on U251 CNS, in the assay with NCI-H23 lung, in the assay on A549 NSCLC and in the assay with UO-31 renal was over 100 µM throughout. Also, the TGI with MCF7 breast, with IGROV1 ovarian, in the assay with HOP-62 NSCLC, in the assay on A498 renal and in the assay on SK-MEL-2 melanoma was over 100 µM in each case.

For the molecule `O=C1C2C(C(=O)N1c1ccccc1)C1(c3ccccc3)CCC2(C(=O)c2ccccc2)O1` (centres undefined), the TGI with PC-3 prostate, in the assay with T-47D breast, in the assay with U251 CNS, with NCI-H23 lung, with A549 NSCLC and in the assay with UO-31 renal was over 10 µM each time. Moreover, the TGI in the assay on MCF7 breast, in the assay on IGROV1 ovarian, with HOP-62 NSCLC, with A498 renal and in the assay on SK-MEL-2 melanoma was over 10 µM in each case.

For `CCOC(=O)Cc1csc(NC(NC(=O)OCC)(C(=O)OCC)C(F)(F)F)n1` (centres undefined), the TGI in the assay with PC-3 prostate, in the assay on T-47D breast, with U251 CNS, in the assay with NCI-H23 lung, in the assay on A549 NSCLC and in the assay on UO-31 renal was over 100 µM in each case. The TGI in the assay on MCF7 breast, in the assay with IGROV1 ovarian, in the assay with HOP-62 NSCLC, in the assay with A498 renal and in the assay with SK-MEL-2 melanoma was over 100 µM each time.

In the case of `Cc1ccc(CC2(C(=O)O)Cc3ccc(C)cc3C2)cc1` (centres undefined), the TGI with PC-3 prostate, in the assay with T-47D breast, in the assay on U251 CNS, in the assay with NCI-H23 lung, in the assay with A549 NSCLC and in the assay with UO-31 renal was over 100 µM throughout. In addition, the TGI in the assay on MCF7 breast, in the assay on IGROV1 ovarian, in the assay on HOP-62 NSCLC, with A498 renal and with SK-MEL-2 melanoma was over 100 µM throughout.

For `CCOCCOCCOCc1nc(C#N)c(N)o1`, the concentration for total growth inhibition (TGI) in the assay with PC-3 prostate, in the assay on T-47D breast, in the assay on U251 CNS, in the assay on NCI-H23 lung, in the assay with A549 NSCLC and in the assay on UO-31 renal was over 100 µM throughout. Further, the TGI in the assay on MCF7 breast, in the assay on IGROV1 ovarian, in the assay with HOP-62 NSCLC, with A498 renal and in the assay on SK-MEL-2 melanoma was over 100 µM each time.

As for `COc1ccc2c(c1)Cc1c(NCCN(C)C)ccc(C(=O)NCCCN(C)CCCNC(=O)c3ccc(NCCN(C)C)c4c3Nc3ccc(OC)cc3C4)c1N2`, the TGI is 0.838 µM with PC-3 prostate; 12.5 µM with T-47D breast; 1.1 µM with U251 CNS; 0.581 µM in the assay on NCI-H23 lung; 0.512 µM in the assay with A549 NSCLC; 14.2 µM in the assay with UO-31 renal. For the same molecule, the TGI with MCF7 breast was determined as 0.615 µM; in the assay with IGROV1 ovarian, 3.95 µM; in the assay with HOP-62 NSCLC, 1.02 µM; in the assay with A498 renal, 0.833 µM; with SK-MEL-2 melanoma, 0.226 µM.

Regarding `C=CCN(c1cc(OC)c(NC(C)=O)cc1[N+](=O)[O-])S(C)(=O)=O`, the TGI in the assay with PC-3 prostate, in the assay on T-47D breast, in the assay with U251 CNS, with NCI-H23 lung, in the assay with A549 NSCLC and in the assay on UO-31 renal was over 100 µM in each case. Further, the concentration for total growth inhibition (TGI) in the assay on MCF7 breast, in the assay on IGROV1 ovarian, in the assay with HOP-62 NSCLC, with A498 renal and in the assay with SK-MEL-2 melanoma was over 100 µM each time.

Consider `NC1N=C(c2ccc(Cl)cc2)C2=C(N1)c1ccccc1CC2` (centres undefined), for which the TGI in the assay on PC-3 prostate was over 100 µM; with T-47D breast, over 100 µM; with U251 CNS, over 100 µM; in the assay with NCI-H23 lung, over 100 µM; in the assay with A549 NSCLC, over 80.7 µM; in the assay on UO-31 renal it was over 88.7 µM. The TGI with MCF7 breast was over 46.8 µM; with IGROV1 ovarian it was over 57.1 µM; in the assay on HOP-62 NSCLC, over 82.7 µM; in the assay with A498 renal, over 100 µM; in the assay on SK-MEL-2 melanoma, 46.6 µM.

For the molecule `O=C1NC2c3c(I)sc(I)c3C(=O)C2O1` (centres undefined), the TGI in the assay with PC-3 prostate was 19 µM; in the assay with T-47D breast it was over 45.7 µM; with U251 CNS, over 50 µM; with NCI-H23 lung it was 16.6 µM; in the assay on A549 NSCLC, 28.3 µM; in the assay on UO-31 renal it was 12.2 µM. Further, the TGI in the assay with MCF7 breast came to 13.7 µM; with IGROV1 ovarian, 8.01 µM; with HOP-62 NSCLC it was 28.1 µM; with A498 renal, 22.4 µM; in the assay on SK-MEL-2 melanoma it was 15.3 µM.
